The source of these data is patent US12109308B2, “Aqueous formulation comprising 1-(4-{[4-(dimethylamino)piperidin-1-yljcarbonyl}phenyl)-3-[4-(4,6-dimorpholin-4-yl-1,3,5-triazin-2-yl)phenyl]urea” (Pfizer Inc., priority 2018, dated 2024).

The conditions of data set [1]: only with lactic acid and orthophosphoric acid, of the many acids tested; no cyclodextrin; cited from earlier work.
The nature of data set [2]: Stability and water solubility of the crystalline free base (background statement). Type of data set: physicochemical.

With `CN(C)C1CCN(C(=O)c2ccc(NC(=O)Nc3ccc(-c4nc(N5CCOCC5)nc(N5CCOCC5)n4)cc3)cc2)CC1` [1-(4-{[4-(Dimethylamino)piperidin-1-yl]carbonyl}phenyl)-3-[4-(4,6-dimorpholin-4-yl-1,3,5-triazin-2-yl)phenyl]urea], the “concentration achieved as a clear solution” value in data set [1] was not below 3000 µg/mL. In addition, in data set [2] (crystalline form, 25° C. and 60% Relative Humidity (RH)), the “chemically and physically stable for (time)” value was “up to 3 years”. In data set [2] (for an aqueous solution formulation for intravenous or parenteral administration at therapeutic dosage levels), the “water solubility of the free base” value is “insufficiently water soluble”.
